For the assay, the target named is T1, human cannabinoid CB2 receptor (Homo sapiens, UniProt P34972).
T1 construct: expressed in transfected cells; host or cells: Saccharomyces cerevisiae strain MMY23 (cassette integrated at the ura3 locus; chimeric Gpa1/Gαi3)
Nature of the assay: Cannabinoid CB2 receptor agonist activity, yeast (Saccharomyces cerevisiae) cells expressing the receptor, FDGlu fluorescence. The class given is cell-based. As to conditions: for Emax: read-out: efficacy (Emax relative to HU210) at the cloned human cannabinoid CB2 receptor. The protocol:
The cannabinoid CB2 receptor agonist activity of the compounds of formula (I) was determined in accordance with the following experimental method.
Yeast (Saccharomyces cerevisiae) cells expressing the human cannabinoid CB2 receptor were generated by integration of an expression cassette into the ura3 chromosomal locus of yeast strain MMY23. This cassette consisted of DNA sequence encoding the human CB2 receptor flanked by the yeast GPD promoter to the 5′ end of CB2 and a yeast transcriptional terminator sequence to the 3′ end of CB2. MMY23 expresses a yeast/mammalian chimeric G-protein alpha subunit in which the C-terminal 5 amino acids of Gpa1 are replaced with the C-terminal 5 amino acids of human Gαi3 (as described in Brown et al. (2000), Yeast 16:11-22). Cells were grown at 30° C. in liquid Synthetic Complete (SC) yeast media (Guthrie and Fink (1991), Methods in Enzymology, Vol. 194) lacking uracil, tryptophan, adenine and leucine to late logarithmic phase (approximately 6 OD600/ml).
Agonists were prepared as 10 mM stocks in DMSO. EC50 values (the concentration required to produce 50% maximal response) were estimated using dilutions of between 3- and 5-fold (BiomekFX, Beckman) into DMSO. Agonist solutions in DMSO (1% final assay volume) were transferred into black, clear bottom, microtitre plates from NUNC (96- or 384-well). Cells were suspended at a density of 0.2 OD600/ml in SC media lacking histidine, uracil, tryptophan, adenine and leucine and supplemented with 10 mM 3-aminotriazole, 0.1M sodium phosphate pH 7.0, and […] fluorescein di-β-D-glucopyranoside (FDGlu). This mixture (50 ul per well for 384-well plates, 200 ul per well for 96-well plates) was added to agonist in the assay plates (Multidrop 384, Labsystems). After incubation at 30° C. for 24 hours, fluorescence resulting from degradation of FDGlu to fluorescein due to exoglucanase, an endogenous yeast enzyme produced during agonist-stimulated cell growth, was determined using a Spectrofluor microtitre plate reader (Tecan; excitation wavelength: 485 nm; emission wavelength: 535 nm). Fluorescence was plotted against compound concentration and iteratively curve fitted using a four parameter fit to generate a concentration effect value. Efficacy (Emax) was calculated from the equation
Emax=Max[compound X]−Min[compound X]/Max[HU210]−Min[HU210]×100%
where Max[compound X] and Min[compound X] are the fitted maximum and minimum respectively from the concentration effect curve for compound X, and Max[HU210] and Min[HU210] are the fitted maximum and minimum respectively from the concentration effect curve for (6aR,10aR)-3-1,1′-Dimethylheptyl)-6a,7,10,10a-tetrahydro-1-hydroxy-6,6-dimethyl-6H-dibenzo[b,d]pyran-9-methanol (HU210; available from Tocris). Equieffective molar ratio (EMR) values were calculated from the equation
Where EC50[compound X] is the EC50 of compound X and EC50[HU210] is the EC50 of HU210.

[1] abbreviates: yeast agonist assay, read-out: EC50 at the cloned human cannabinoid CB2 receptor.

Counter-ions that a name gives are not always drawn. Like-named read-outs stand apart in the source and are kept apart here.

As usually defined, the EC50 is the concentration needed to bring the measured effect to its halfway point. A word on the Emax: it is the maximal effect, on the per cent scale that the assay sets.

T1 sequence (P34972 whole entry): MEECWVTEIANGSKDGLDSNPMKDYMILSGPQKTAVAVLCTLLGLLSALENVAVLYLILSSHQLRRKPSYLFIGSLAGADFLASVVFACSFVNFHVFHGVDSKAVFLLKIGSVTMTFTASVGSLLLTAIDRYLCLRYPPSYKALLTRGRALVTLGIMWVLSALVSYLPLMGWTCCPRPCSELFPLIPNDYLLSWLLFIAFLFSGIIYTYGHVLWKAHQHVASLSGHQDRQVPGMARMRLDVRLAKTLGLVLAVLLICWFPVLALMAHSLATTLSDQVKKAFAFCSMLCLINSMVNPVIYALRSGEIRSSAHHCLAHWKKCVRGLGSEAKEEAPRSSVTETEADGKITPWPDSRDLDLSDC

As to `CC(NCC1CCCC1)c1cnc(Nc2cccc(Cl)c2)nc1C(F)(F)F` (stereo not shown) [Example 90, (3-Chlorophenyl)-{5-[1-(cyclopentylmethyl-amino)-ethyl]-4-trifluoromethyl-pyrimidin-2-yl}-amine, formate], the EC50 under setting [1] is less than 300 nM. Where the note is “yeast agonist assay”, the Emax is greater than 50%.

Turning to `FC(F)(F)c1nc(Nc2cccc(Cl)c2)ncc1CNCC1CCCCC1` [Example 12, (3-Chlorophenyl)-{[5-(cyclohexylmethylamino)-methyl]-4-trifluoromethyl-pyrimidin-2yl}-amine], the Emax was greater than 50%. For the same molecule, the EC50 under setting [1] lay within 300 to 1000 nM.

Regarding `CCCCN(C)Cc1cnc(Nc2cccc(Cl)c2)nc1C(F)(F)F` [Example 47, {5-[(Butyl-methyl-amino)-methyl]-4-trifluoromethyl-pyrimidin-2-yl}-(3-chlorophenyl)-amine], the Emax is greater than 50%. Further, the EC50 under setting [1] lay in the range of 300 to 1000 nM.

Regarding `CC(C)c1nc(Nc2cccc(Cl)c2)ncc1CN1CCOCC1` [Example 6, (3-Chloro-phenyl)-(4-isopropyl-5-morpholin-4-ylmethyl-pyrimidin-2-yl)-amine], under setting [1], the EC50 was less than 300 nM. The Emax (yeast agonist assay) is greater than 50%.

With `FC(F)(F)c1nc(Nc2cccc(Cl)c2)ncc1CNCC1CCC1` [Example 18, (3-Chlorophenyl)-{5-[(cyclobutylmethylamino)-methyl]-4-trifluoromethyl-pyrimidin-2-yl}-amine,formate], the EC50 under setting [1] is less than 300 nM. For the setting “yeast agonist assay”, the Emax was greater than 50%.

In the case of `CC(c1cnc(Nc2cccc(Cl)c2)nc1C(F)(F)F)N1CCOCC1` (stereo not shown) [Example 93, (3-Chlorophenyl)-[5-(1-morpholin-4-yl-ethyl)-4-trifluoromethyl-pyrimidin-2-yl]-amine], the EC50 is less than 300 nM and the Emax is greater than 50%.

Consider `Fc1cc(CNCc2cnc(Nc3cccc(Cl)c3)nc2C(F)(F)F)ccn1` [Example 96, (3-Chlorophenyl)-(5-{[(2-fluoropyridin-4-ylmethyl)amino]-methyl}-4-trifluoromethyl-pyrimidin-2yl}-amine, formate], for which the maximal response (Emax) was greater than 50%. In addition, the EC50 under setting [1] fell in the range of 300 to 1000 nM.

In the case of `FC(F)(F)c1nc(Nc2cccc(Cl)c2)ncc1CNCC1CCCC1` [Example 10, (3-Chlorophenyl){5-[(cyclopentylmethylamino)-methyl]-4 trifluoromethyl-pyrimidin-2-yl}-amine, formate], the EC50 under setting [1] was less than 300 nM. In addition, for the setting “yeast agonist assay”, the Emax was greater than 50%.

With `CC(C)CNCc1cnc(Nc2cccc(F)c2)nc1C(F)(F)F` [Example 36, (3-Fluorophenyl)-{5-[(isobutylamino)-methyl]-4-trifluoromethyl-pyrimidin-2yl}-amine, formate], the EC50 under setting [1] is less than 300 nM. In addition, the maximal effect (Emax) (yeast agonist assay) is greater than 50%.

On to `FC(F)(F)c1nc(Nc2cccc(Cl)c2)ncc1CNCC1CCOCC1` [Example 15, (3-Chlorophenyl)-(5-{[(tetrahydro-pyran-4-ylmethyl)-amino]-methyl}-4-trifluoromethyl-pyrimidin-2-yl)-amine,formate], for which, under setting [1], the EC50 is less than 300 nM. Further, the Emax (yeast agonist assay) is greater than 50%.

For the molecule `COCCNCc1cnc(Nc2ccc(Cl)cc2Cl)nc1C(F)(F)F` [Example 33, (2,4-Dichlorophenyl)-{5-[(2-methoxy-ethylamino)-methyl]-4-trifluoromethyl-pyrimidin-2-yl}-amine], the EC50 under setting [1] is less than 300 nM. Further, the Emax (yeast agonist assay) is greater than 50%.

For the molecule `Fc1cccc(Nc2ncc(CNCC3CCC3)c(C(F)(F)F)n2)c1` [Example 37, (3-Fluorophenyl)-{5-[(cyclobutylmethylamino)-methyl]-4-trifluoromethyl-pyrimidin-2-yl}-amine,formate], the EC50 under setting [1] is less than 300 nM. For the same molecule, the Emax (yeast agonist assay) was greater than 50%.

In the case of `COCCNCc1cnc(Nc2cccc(Cl)c2)nc1C(F)(F)F` [Example 17, (3-Chlorophenyl)-{5-[(2-methoxy-ethylamino)-methyl]-4-trifluoromethyl-pyrimidin-2-yl}-amine, formate], the EC50 under setting [1] is less than 300 nM. In addition, the Emax (yeast agonist assay) is greater than 50%.

For the molecule `CC(C)CNCc1cnc(Nc2cccc(Cl)c2)nc1C(C)(C)C` [Example 102, (4-tert-Butyl-5-(isobutylamino-methyl)-pyrimidin-2-yl]-(3-chloro-phenyl)-aminehydrochloride], under setting [1], the EC50 is less than 300 nM. In addition, the Emax (yeast agonist assay) is greater than 50%.

As to `FC(F)(F)c1nc(Nc2cccc(Cl)c2)ncc1CNCC1CC1` [Example 25, (3-Chlorophenyl)-{5-[(cyclopropylmethylamino)-methyl]-4-trifluoromethyl-pyrimidin-2-yl}-amine,formate], the EC50 under setting [1] was less than 300 nM. For the same molecule, under “yeast agonist assay”, the Emax was greater than 50%.

For `FC(F)(F)c1nc(Nc2cccc(Cl)c2)ncc1CN1CCCCC1` [Example 39, (3-Chlorophenyl)-(5-piperidin-1-ylmethyl-4-trifluoromethyl-pyrimidin-2-yl)-amine,formate], the Emax is greater than 50%. Also, the EC50 under setting [1] lay within 300 to 1000 nM.

For `FC(F)(F)c1nc(Nc2ccc(Cl)cc2Cl)ncc1CN1CCCC1` [Example 53, (2,4-Dichlorophenyl)-(5-pyrrolidin-1-ylmethyl-4-trifluoromethyl-pyrimidin-2-yl)-amine], the Emax was greater than 50%. Moreover, the EC50 under setting [1] was 300 to 1000 nM.

For the molecule `CCC(C)NCc1cnc(Nc2cccc(Cl)c2)nc1C(F)(F)F` (stereo not shown) [Example 48, [5-(sec-Butylamino-methyl)-4-trifluoromethyl-pyrimidin-2-yl]-(3-chloro-phenyl)-amine, formate], the Emax was greater than 50%. The EC50 under setting [1] was in the range of 300 to 1000 nM.

`CN(Cc1cnc(Nc2cccc(Cl)c2)nc1C(F)(F)F)CC1CCC1` [Example 51]: the Emax was greater than 50%. For the same molecule, the EC50 under setting [1] fell in the range of 300 to 1000 nM.

As for `CC(NC1CC1)c1cnc(Nc2cccc(Cl)c2)nc1C(F)(F)F` (stereo not shown) [Example 85], the EC50 is less than 300 nM and the Emax was greater than 50%.

As for `FC(F)(F)c1nc(Nc2cccc(Cl)c2)ncc1CNC1CCCC1` [Example 34], the EC50 was less than 300 nM and the Emax is greater than 50%.

For `Fc1ccc(CNCc2cnc(Nc3cccc(Cl)c3)nc2C(F)(F)F)cc1` [Example 41, (3-Chlorophenyl)-{5-[(4-fluorobenzylamino)-methyl]-4-trifluoromethyl-pyrimidin-2-yl)-amine,formate], the Emax is greater than 50%. The EC50 under setting [1] is 300 to 1000 nM.

Regarding `Fc1cccc(Nc2ncc(CNC3CC3)c(C(F)(F)F)n2)c1` [Example 38, (3-Fluorophenyl)-(5-cyclopropylaminomethyl-4-trifluoromethyl-pyrimidin-2-yl)-amine], the EC50 under setting [1] was less than 300 nM. Also, under “yeast agonist assay”, the Emax was greater than 50%.

Turning to `CC(C)(C)c1nc(Nc2cccc(Cl)c2)ncc1CN1CCOCC1` [Example 97, (4-tert-Butyl-5-morpholin-4-ylmethyl-pyrimidin-2-yl)-(3-chloro-phenyl)-amine hydrochloride], the EC50 under setting [1] was less than 300 nM. In addition, the Emax (yeast agonist assay) was greater than 50%.

With `FC(F)(F)c1nc(Nc2ccc(Cl)cc2Cl)ncc1CNCC1CC1` [Example 28, (2,4-Dichlorophenyl)-{5-[(cyclopropylmethylamino)-methyl]-4-trifluoromethyl-pyrimidin-2-yl}-amine], the EC50 is less than 300 nM and the Emax is greater than 50%.

In the case of `CC(C)CNCc1cnc(Nc2cccc(Cl)c2)nc1C(F)(F)F` [Example 11, (3-Chlorophenyl){5-[(isobutylamino)-methyl]-4-trifluoromethyl-pyrimidin-2yl}-amine, formate], under setting [1], the EC50 is less than 300 nM. Moreover, the Emax (yeast agonist assay) is greater than 50%.

These data come from US20080261977A1, “Pyrimidine Derivatives as Cannabinoid Receptor Modulators” (priority 2004, published 2008).
